Measurements as given in the NIST ThermoML archive (doi:10.1016/j.jct.2019.04.010).

Assay: xn = mol fraction of the nth substance listed
Details: 100 kPa, Liquid; for viscosity: Concentric cylinders viscometry; for mass density: Vibrating tube method

CCCCn1cc[n+](C)c1.O=[N+]([O-])[O-] [1-butyl-3-methylimidazolium nitrate] + CCCC(C)O
Details | mass density, 293.15 K [kg/m3] | mass density, 298.15 K [kg/m3] | mass density, 303.15 K [kg/m3] | viscosity, 293.15 K [mPa·s] | viscosity, 298.15 K [mPa·s] | viscosity, 303.15 K [mPa·s] | viscosity, 308.15 K [mPa·s]
x1 = 0.0812 | 854 | 850.4 | 846.5 | 4.47 | 3.69 | 3.16 | 2.74
x1 = 0.1604 | 893.6 | 890.1 | 886.5 | 5.28 | 4.35 | 3.72 | 3.25
x1 = 0.2403 | 929.8 | 926.4 | 922.9 | 6.43 | 5.39 | 4.65 | 4.08
x1 = 0.3499 | 974.3 | 971.1 | 967.8 | 9.03 | 7.59 | 6.64 | 5.73
x1 = 0.4399 | 1007.1 | 1004 | 1000.7 | 12.56 | 10.53 | 9.14 | 7.89
x1 = 0.5604 | 1046.7 | 1043.5 | 1040.5 | 20.29 | 17.14 | 14.61 | 12.37
x1 = 0.6505 | 1073.3 | 1070.3 | 1067.4 | 30.81 | 25.47 | 21.35 | 17.74
x1 = 0.7405 | 1097.8 | 1094.8 | 1092.1 | 47.6 | 37.96 | 31.14 | 25.35
x1 = 0.8501 | 1124.9 | 1122 | 1119.3 | 83.3 | 63.4 | 50.3 | 40
x1 = 0.9396 | 1145.3 | 1142.3 | 1139.5 | 143.6 | 105.6 | 81.8 | 63.4
x1 = 1 | 1158.3 | 1155.2 | 1152.3 | 223.54 | 168.97 | 125.36 | 96.74
